# Data from the Kinase Knowledgebase extract (Sharma et al. 2016).
# Target: PIK3CA (human) (UniProt P42336)
# Assay: Assessment of PIK3CA Kinase Activity
# Sequence of PIK3CA (human) (P42336 whole entry, looked up): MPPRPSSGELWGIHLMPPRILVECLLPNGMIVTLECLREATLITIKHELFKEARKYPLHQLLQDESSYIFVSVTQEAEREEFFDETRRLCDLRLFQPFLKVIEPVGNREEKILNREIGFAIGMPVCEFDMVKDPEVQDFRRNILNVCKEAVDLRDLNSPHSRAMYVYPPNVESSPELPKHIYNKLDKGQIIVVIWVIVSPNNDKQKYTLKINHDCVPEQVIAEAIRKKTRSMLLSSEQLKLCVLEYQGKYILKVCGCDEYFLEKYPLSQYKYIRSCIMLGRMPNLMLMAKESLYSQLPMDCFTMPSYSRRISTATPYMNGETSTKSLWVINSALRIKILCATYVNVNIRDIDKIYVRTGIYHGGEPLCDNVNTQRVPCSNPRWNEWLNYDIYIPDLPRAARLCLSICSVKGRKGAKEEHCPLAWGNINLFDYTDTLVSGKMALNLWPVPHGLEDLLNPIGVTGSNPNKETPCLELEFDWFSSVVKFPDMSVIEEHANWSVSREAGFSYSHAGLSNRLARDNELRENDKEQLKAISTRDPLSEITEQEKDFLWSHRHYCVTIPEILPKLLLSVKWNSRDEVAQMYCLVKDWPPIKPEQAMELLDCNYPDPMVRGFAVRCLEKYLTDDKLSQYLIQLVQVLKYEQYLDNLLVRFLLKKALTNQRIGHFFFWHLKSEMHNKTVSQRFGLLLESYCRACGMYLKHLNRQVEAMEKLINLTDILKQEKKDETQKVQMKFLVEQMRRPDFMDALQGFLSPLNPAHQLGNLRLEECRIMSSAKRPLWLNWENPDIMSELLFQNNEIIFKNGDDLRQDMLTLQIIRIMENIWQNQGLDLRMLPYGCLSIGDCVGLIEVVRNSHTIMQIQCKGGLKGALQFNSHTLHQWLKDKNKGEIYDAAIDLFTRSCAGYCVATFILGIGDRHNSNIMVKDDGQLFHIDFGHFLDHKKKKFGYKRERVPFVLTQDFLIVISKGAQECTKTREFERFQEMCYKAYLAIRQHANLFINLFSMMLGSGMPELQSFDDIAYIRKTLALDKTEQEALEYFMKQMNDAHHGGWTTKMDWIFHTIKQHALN
row,IC50 [nM],SMILES
1,218,CCc1nc2ccccc2n1-c1nc(N2CCOCC2)c2nc(CN3C[C@@H]4C[C@H]3CN4C(C)(C)CO)n(C)c2n1
2,264,CC(C)c1nc2ccccc2n1-c1nc(N2CCOCC2)c2nc(CN3CCN(C(C)(C)CO)CC3)[nH]c2n1
3,472,Cn1c(CN2CC(C3CCOCC3)C2)nc2c(N3CCOCC3)nc(-n3c(C4CC4)nc4ccccc43)nc21
4,729,COc1cccc(-c2nc3c(N4CCOCC4)nc(-n4c(C(C)C)nc5ccccc54)nc3n2C)c1
5,104,CCc1nc2ccccc2n1-c1nc(N2CCOCC2)c2nc(CC3CN(C(C)(C)C(N)=O)C3)n(C)c2n1
6,83,CCc1nc2ccccc2n1-c1nc(N2CCOCC2)c2nc(C(=O)C3CCN(C(C)(C)C(=O)OC)CC3)n(C)c2n1
7,190,CC(C)c1nc2ccccc2n1-c1nc(N2CCOCC2)c2nc(-c3cccnc3)n(C)c2n1
8,485,CCc1nc2ccccc2n1-c1nc(N2CCOCC2)c2nc(CCN3CCOCC3(C)C)n(C)c2n1
9,132,CCc1nc2ccccc2n1-c1nc(N2CCOCC2)c2nc(CC(=O)N3CCC(C(C)(C)O)CC3)sc2n1
10,82.5,CCc1nc2ccccc2n1-c1nc(N2CCOCC2)c2nc(CC3CN(C4CCS(=O)(=O)CC4)C3)n(C)c2n1

# The remaining lines, values behind:
row,SMILES,IC50 [nM]
1,CN(C)C1CCN(Cc2cc3nc(-c4ccc(O)c5nccn45)nc(N4CCOCC4)c3s2)CC1,593
2,CC(C)(C(N)=O)N1CCN(Cc2nc3c(N4CCOCC4)nc(-c4cncc5[nH]ccc45)nc3s2)CC1,41.6
3,CC(C)(C(N)=O)N1CCN(Cc2nc3nc(-c4cccc5nccn45)nc(N4CCOCC4)c3s2)CC1,1500
4,Cn1c(CN2CCC(C(C)(C)O)CC2)nc2c(N3CCOCC3)nc(-c3cnc(N)c4ccccc34)nc21,245
5,c1cc(-c2nc(N3CCOCC3)c3sc(CN4CCC(N5CCOCC5)CC4)cc3n2)c2ccncc2c1,5350
6,Cc1c(CN2CCN(C(C)(C)C(N)=O)CC2)sc2c(N3CCOCC3)nc(-c3cncc4[nH]ccc34)nc12,52.2
7,CN(C)C1CCN(Cc2cc3nc(-n4ccc5cnccc54)nc(N4CCOCC4)c3s2)CC1,207
8,Cn1c(CN2CCC(C(C)(C)O)CC2)nc2c(N3CCOCC3)nc(-c3n[nH]c4ccccc34)nc21,2790
9,CCc1nc2ccccc2n1-c1nc(N2CCOCC2)c2nc(CN3CCN(C(C)(C)CO)CC3)[nH]c2n1,215
10,Cc1nc2ccccc2n1-c1nc(N2CCOCC2)c2oc(CN3CCN(C(C)(C)C(N)=O)CC3)cc2n1,175
11,COC(C)(C)C1CCN(Cc2nc3c(N4CCOCC4)nc(-c4c(C)oc5ccccc45)nc3n2C)CC1,1200

# Target: PIK3CD (Human) (UniProt O00329)
# Sequence (O00329 whole entry, looked up): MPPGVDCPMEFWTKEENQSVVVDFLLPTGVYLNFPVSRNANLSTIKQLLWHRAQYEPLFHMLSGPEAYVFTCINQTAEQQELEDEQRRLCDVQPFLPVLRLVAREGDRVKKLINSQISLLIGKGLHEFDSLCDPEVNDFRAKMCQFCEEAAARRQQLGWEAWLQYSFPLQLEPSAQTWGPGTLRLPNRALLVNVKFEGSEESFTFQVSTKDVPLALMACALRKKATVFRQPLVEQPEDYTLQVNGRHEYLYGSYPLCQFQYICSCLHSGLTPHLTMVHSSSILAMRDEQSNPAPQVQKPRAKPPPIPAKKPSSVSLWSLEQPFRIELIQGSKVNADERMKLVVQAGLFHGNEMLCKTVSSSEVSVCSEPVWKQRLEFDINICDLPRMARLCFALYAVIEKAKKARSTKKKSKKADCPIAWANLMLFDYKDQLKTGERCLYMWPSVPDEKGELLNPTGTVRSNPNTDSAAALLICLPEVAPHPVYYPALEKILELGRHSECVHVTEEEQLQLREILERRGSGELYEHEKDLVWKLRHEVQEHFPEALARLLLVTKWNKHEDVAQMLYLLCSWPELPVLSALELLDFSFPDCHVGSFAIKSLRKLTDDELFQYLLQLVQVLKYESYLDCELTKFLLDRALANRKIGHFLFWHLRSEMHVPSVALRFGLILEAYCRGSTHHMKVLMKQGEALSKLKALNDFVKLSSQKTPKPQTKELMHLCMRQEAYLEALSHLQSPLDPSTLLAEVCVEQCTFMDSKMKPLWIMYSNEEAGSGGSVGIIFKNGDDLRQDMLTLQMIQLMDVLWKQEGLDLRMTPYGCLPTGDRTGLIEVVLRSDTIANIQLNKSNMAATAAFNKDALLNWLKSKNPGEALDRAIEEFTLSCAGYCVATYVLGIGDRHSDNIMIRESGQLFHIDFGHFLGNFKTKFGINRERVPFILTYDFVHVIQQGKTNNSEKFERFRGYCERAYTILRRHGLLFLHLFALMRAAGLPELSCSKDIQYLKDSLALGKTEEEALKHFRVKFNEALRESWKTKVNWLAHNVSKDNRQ
# Assay: Assessment of PIK3CD Kinase Activity
row,IC50 [nM],SMILES
1,1.08,CCc1nc2ccccc2n1-c1nc(N2CCOCC2)c2nc(CC3CN(C(C)(C)C(N)=O)C3)n(C)c2n1
2,0.61,CCc1nc2ccccc2n1-c1nc(N2CCOCC2)c2nc(C(=O)C3CCN(C(C)(C)C(=O)OC)CC3)n(C)c2n1
